In patent US20130156865A1, “POTENTIATION INDUCED BY PDE4 INHIBITORS IN THE TREATMENT OF LEUKEMIA” (Chiesi Farmaceutici S.p.A., priority 2011, published 2013):
“Also recorded” adds a separate entry of the source.

Tests used:
[1] = tested on: Acute Promyelocytic Leukemia (APL) cell line NB4 and Arsenic resistant NB4-AsR cell line; assay: Annexin-V apoptosis assay with PDE-4 inhibitor pre-treatment plus ATO in APL cells; format: cell-based, human
Method: (§1) The Parental Acute Promyelocytic Leukemia (APL) cell line NB4 and the Arsenic resistant NB4-AsR cell line were seeded at 0.8×10^5 cells/mL of fresh RPMI 1640 medium (Sigma Aldrich), supplemented with 10% fetal calf serum, 2 mM L-glutamine, penicillin G (100 U/mL), streptomycin ([…]). Cells were pre-treated for 30 minutes with vehicle (DMSO), CHF-6001 (1 and 10 μM), Roflumilast (1 and 10 μM) or Piclamilast (1, and 50 μM) and then incubated with ATO at the indicated doses. After 72 hours cells were collected, stained with Annexin-V FITC (according to the manufacturer's recommendations—Bender MedSystems) and processed by flow cytometry (FACSCalibur, Becton Dickinson, San Josè, Calif.) to evaluate the percentage of apoptosis as described in Lunghi P et al., Leukemia. 2005; 19(2):234-44, which is incorporated herein by reference in its entirety.

[2] = tested on: Imatinib-sensitive (K562-SENS, LAMA-SENS, KCL22-SENS) and Imatinib-resistant (K562-RES, LAMA-RES, KCL22-RES and BAF3 p210-T315I) chronic myeloid leukemia (CML) …; assay: Apoptosis (sub-G1 propidium iodide or Annexin-V) with PDE-4 inhibitor plus ATO in CML cell lines; format: cell-based, human
Method: as §1
The Imatinib-sensitive (K562-SENS, LAMA-SENS, KCL22-SENS) and Imatinib-resistant (K562-RES, LAMA-RES, KCL22-RES and BAF3 p210-T315I) chronic myeloid leukemia (CML) cell lines were cultured with the PDE-4 inhibitor and ATO as described in Example 1. After 72 hours cells were harvested, stained with Propidium Iodide to evaluate the percentage of cells with hypodiploid DNA content (sub-G1) or with Annexin-V FITC as described in Lunghi P et al Leukemia. 2005; 19(2):234-44, which is incorporated herein by reference in its entirety.

[3] = tested on: LAMA-RES, NB4 and NB4-AsR cell lines; assay: C2/ATO-induced apoptosis (annexin V) in the presence of caspase inhibitors; format: cell-based, human; details: caspase inhibitors 25 μM, 1 hour pre-treatment; 24 hours; FIG. 4
From the text: On the Y-axis the histograms represent the percentage of apoptotic cells measured by Annexin V staining (% ANNEXIN V+). NEG indicates peptide control Cbz-Phe-Ala-fluoromethyl ketone (Z-FA-FMK), CASPASE-8 IN, specific caspase-8 inhibitor Cbz-Ile-Glu(Ome)-Thr-Asp(Ome)-fluoromethyl ketone (Z-IETD-FMK), CASPASE-9 IN, specific caspase-9 inhibitor Cbz-Leu-Glu(Ome)-His-Asp(Ome)-fluoromethyl ketone (Z-LEHD-FMK), PANCASPASE IN, pancaspase inhibitor Cbz-Val-Ala-Asp(Ome)-fluoromethyl ketone (Z-VAD-FMK); CTR, control; C2, compound C2; ATO, arsenic trioxide.
LAMA-RES, NB4 and NB4-AsR cell lines were pretreated with selective caspase inhibitors for 1 hour before adding C2 and/or ATO. After 24 hours the percentage of apoptotic cells was determined by the annexin V method. More specifically, the caspase inhibitors are: NEG peptide control Cbz-Phe-Ala-fluoromethyl ketone (Z-FA-FMK), CASPASE-8 inhibitor Cbz-Ile-Glu(Ome)-Thr-Asp(Ome)-fluoromethyl ketone (Z-IETD-FMK), CASPASE-9 inhibitor Cbz-Leu-Glu(Ome)-His-Asp(Ome)-fluoromethyl ketone (Z-LEHD-FMK), and the PANCASPASE inhibitor Cbz-Val-Ala-Asp(Ome)-fluoromethyl ketone (Z-VAD-FMK), all provided from Alexis (San Diego, Calif., USA). All caspase inhibitors were dissolved in DMSO, stocked in aliquots at −20° C., and used at the final concentration of 25 μM.

[4] = tested on: NB4 and NB4-AsR Acute Promyelocytic Leukemia cell lines; assay: Myeloid differentiation (CD11b expression, NBT reduction test) with ATRA or low-dose ATO; format: cell-based, human
Method: NB4 and NB4-AsR were seeded at 0.8×10^5 cells/mL in presence of vehicle (DMSO) or the PDE-4 inhibitor at the indicated doses for 30 minutes and then incubated with 0.1 μM and 1 μM of all-trans retinoic acid ([…]) promoting cell differentiation (see Chen GQ et al., Blood. 1997; 89(9):3345-53, which is incorporated herein by reference in its entirety). After 72 hours of treatment, early and late stage of differentiation was evaluated. More specifically, expression of the cell surface CD11b, an early-expressed maturation marker, was measured by flow cytometry using fluorescein isothiocyanate (FITC)-conjugated anti-CD11b antibody (Sigma Chemical Co.) according to the manufacturer's protocol. Late stage differentiation of leukemic cells was detected using the microscopic nitroblue tetrazolium (NBT) reduction test (Chen GQ et al., vide supra).
This assay is conducted by counting the cells containing blue NBT formazan deposits, which are formed by reduction of the membrane permeable, water-soluble, yellow-colored, nitroblue tetrazolium (NBT) by superoxide anions O2. Over 300 cells were counted per sample, and variation in replicates was routinely within 10%.

[5] = tested on: NB4 and NB4-AsR cell lines; assay: Myeloid marker panel (CD33, CD38, CD11b, CD14, CD15) and NBT reduction with C2/ATRA; format: cell-based, human
Method: On the Y-axis the histograms represent, for each cell line, the percentage of myeloid differentiation measured using a panel of myeloid markers (CD33, CD38, CD11b, CD15, CD14) and nitroblue tetrazolium reduction test (% NBT+). Vehicle indicates Dimethyl sulfoxide (DMSO); C2, compound C2; CTR, control; ATRA, all-trans retinoic acid.
NB4 e NB4-AsR cell lines were cultured with C2/ATRA for 72 hours, after which cells were harvested for determination of NBT reduction and expression of differentiation-associated surface antigens CD33, CD38, CD11b, CD14 and CD15. Cytofluorimetric analysis of surface antigen expression was performed using the following monoclonal antibodies all provided by Sigma Chemical: fluorescein isothiocyanate (FITC)-conjugated anti-CD33 antibody, (FITC)-conjugated anti-CD38 antibody, (FITC)-conjugated anti-CD11b antibody, (FITC)-conjugated anti-CD 14 antibody and (FITC)-conjugated anti-CD15 antibody. Briefly, each antibody was incubated at the proper dilution with cell samples in PBS containing 1% BSA for 30 minutes at room temperature. Cells were then washed and resuspended with PBS and analyzed by flow cytometer.

[6] = tested on: chronic lymphocytic leukemia (CLL) B-lymphocytes; details: in vitro; Mentz F et al., Br. J. Hematol. 1995; cited from earlier work

CS(=O)(=O)Nc1ccc(C(=O)O[C@@H](Cc2c(Cl)c[n+]([O-])cc2Cl)c2ccc(OC(F)F)c(OCC3CC3)c2)cc1OCC1CC1 [Compound C2, (-)-3-Cyclopropylmethoxy-4-methanesulfonylamino-benzoic acid 1-(3-cyclopropylmethoxy-4-difluoromethoxy-phenyl)-2-(3,5-dichloro-1-oxy-pyridin-4-yl)-ethyl ester]
effectiveness versus roflumilast or piclamilast in potentiating the proapoptotic effects of ATO ([1]; APL cells incl. ATO-resistant, P<0.001 versus same doses of comparator + ATO, P<0.005 C2 1 μM versus comparator 10 μM): more effective than CHF 5152 (roflumilast) or CHF 5859 (piclamilast)
potentiation of the proapoptotic effects of ATO (% Annexin V+ cells) ([1]; C2 1 μM/10 μM + ATO 1 μM, 72 hours, P<0.001 versus either mono-treatment, FIG. 1): potentiates the proapoptotic effects of ATO
potentiation of the proapoptotic effects of ATO (% sub-G1 or % Annexin V+) ([2]; C2 1 μM/10 μM + ATO 2 μM (ATO 1 μM in Baf3-T315I), 72 hours, P<0.001, P<0.05 in K562-RES, versus either mono-treatment, FIG. 2): potentiates the proapoptotic effects of ATO
effectiveness versus roflumilast or piclamilast in potentiating the proapoptotic effects of ATO ([2]; CML cell lines, same doses of comparator + ATO, P<0.001 to P<0.05): more effective than Roflumilast or Piclamilast
enhancement of ATO-induced cytotoxicity and caspase dependence (% Annexin V+) [3]: strikingly enhances ATO-induced cytotoxicity in leukemia cells through a caspase-dependent mechanism
expression of the myeloid marker CD11b (% CD11b+) ([4]; 72 hours, FIG. 6): upregulates the expression of the myeloid marker CD11b
effectiveness versus Roflumilast or Piclamilast in potentiating the cytodifferentiating action of ATRA or ATO ([4]; ATO-sensitive or ATO-resistant APL cell lines, same doses of comparator, P<0.001 to P<0.01): more effective than Roflumilast or Piclamilast
potentiation of the cytodifferentiating action of ATRA and ATO ([4]; C2 1 μM/10 μM + ATRA or + ATO 1 μM, P<0.001 versus either mono-treatment, NB4 and NB4-AsR, 72 hours): potentiates the cytodifferentiating action of ATRA and ATO
dose inducing CD38 and CD11b expression relative to piclamilast ([5]; ATO-sensitive or ATO-resistant acute promyelocytic leukemia cells): 5 fold lower
induction of the early myeloid markers CD38 and CD11b ([5]; C2 as mono-treatment, ATO-sensitive or ATO-resistant APL cells, 72 hours, FIG. 7): capable of inducing the expressions of the early myeloid markers CD38 and CD11b; also recorded: induces upregulation of the myeloid markers (CD38 and CD11b); also recorded: able to partially induce an early myeloid differentiation
enhancement of the cytodifferentiating action of ATRA ([5]; very low-dose ATRA, ATO-sensitive or ATO-resistant APL cell lines, 72 hours): enhances the cytodifferentiating action of very low-dose of ATRA

Cn1c(=O)c2[nH]cnc2n(C)c1=O [theophylline]
induction of apoptosis [6]: induce apoptosis
